ChEMBL document CHEMBL5726856, “ULK1 inhibitors and methods using same” (2019)

target: T1, Serine/threonine-protein kinase ULK1 (Homo sapiens, UniProt O75385); test: ULK1 inhibition assay: Gamma-32P assays to measure ULK1 kinase activity were performed as previously described. Briefly, Flag ULK1 was transfected into HEK293T cells and 20 hours later treated as indicated. The immmunoprecipitate was washed in IP buffer 3 times, and washed in kinase buffer (25 mM MOPS, pH 7.5, 1 mM EGTA, 0.1 mM Na3VO4, 15 mM MgCl2,). Hot and cold ATP were added at a 100 μM final concentration. As substrates, GST or the recombinant protein GST-Atg101 purified from E. coli were used at 1 μg for each reaction. Reactions were boiled, run out on SDS page gel. The gel was dried, and imaged using PhosphoImager software. For cold assays to asses ULK1, Flag ULK1 which was transiently overexpressed and immunoprecipited from HEK293T cells. Reactions were then run out on SDS page gel, transferred to PVDF membrane and blotted for total levelsFluorescence MicroscopyVps34flox/flox MEFs were reconstituted with Flag-VPS34 and either p40FX or GFP-DFCP1. 48 hours post infection with adenovirus expressing Cre recombinase (MOI of 100), cells were plated on glass coverslips at a density of 3×10^5 cells per well in 6-well tissue culture plates. 18 h later, cells were fixed in 4% PFA in PBS for 10 minutes and permeabilized in 0.2% Triton in PBS for 10 minutes. The following primary antibodies were used: mouse anti-Myc epitope and LC3B XP antibody (2276 and 3868 respectively, Cell Signaling Technologies). Secondary antibodies were anti-rabbit Alexa488 and anti-mouse Alexa594 (Molecular Probes, 1:1000. Cells were then fixed and counter stained with DAPI. Coverslips were mounted in FluoromountG (SouthernBiothech). Images were acquired on a Zeiss Axioplan2 epifluorescence microscope coupled to the Openlab software. Confocal images of mitotracker were taken on Zeiss LSM 710 laser scanning confocal microscope. 10 random fields per condition were acquired using the 100× objective and representative images shown. Glass coverslips were mounted directly on plate with FluoromountG and images taken on Zeiss Axioplan2 epifluorescence microscope.
T1 sequence (O75385 whole entry): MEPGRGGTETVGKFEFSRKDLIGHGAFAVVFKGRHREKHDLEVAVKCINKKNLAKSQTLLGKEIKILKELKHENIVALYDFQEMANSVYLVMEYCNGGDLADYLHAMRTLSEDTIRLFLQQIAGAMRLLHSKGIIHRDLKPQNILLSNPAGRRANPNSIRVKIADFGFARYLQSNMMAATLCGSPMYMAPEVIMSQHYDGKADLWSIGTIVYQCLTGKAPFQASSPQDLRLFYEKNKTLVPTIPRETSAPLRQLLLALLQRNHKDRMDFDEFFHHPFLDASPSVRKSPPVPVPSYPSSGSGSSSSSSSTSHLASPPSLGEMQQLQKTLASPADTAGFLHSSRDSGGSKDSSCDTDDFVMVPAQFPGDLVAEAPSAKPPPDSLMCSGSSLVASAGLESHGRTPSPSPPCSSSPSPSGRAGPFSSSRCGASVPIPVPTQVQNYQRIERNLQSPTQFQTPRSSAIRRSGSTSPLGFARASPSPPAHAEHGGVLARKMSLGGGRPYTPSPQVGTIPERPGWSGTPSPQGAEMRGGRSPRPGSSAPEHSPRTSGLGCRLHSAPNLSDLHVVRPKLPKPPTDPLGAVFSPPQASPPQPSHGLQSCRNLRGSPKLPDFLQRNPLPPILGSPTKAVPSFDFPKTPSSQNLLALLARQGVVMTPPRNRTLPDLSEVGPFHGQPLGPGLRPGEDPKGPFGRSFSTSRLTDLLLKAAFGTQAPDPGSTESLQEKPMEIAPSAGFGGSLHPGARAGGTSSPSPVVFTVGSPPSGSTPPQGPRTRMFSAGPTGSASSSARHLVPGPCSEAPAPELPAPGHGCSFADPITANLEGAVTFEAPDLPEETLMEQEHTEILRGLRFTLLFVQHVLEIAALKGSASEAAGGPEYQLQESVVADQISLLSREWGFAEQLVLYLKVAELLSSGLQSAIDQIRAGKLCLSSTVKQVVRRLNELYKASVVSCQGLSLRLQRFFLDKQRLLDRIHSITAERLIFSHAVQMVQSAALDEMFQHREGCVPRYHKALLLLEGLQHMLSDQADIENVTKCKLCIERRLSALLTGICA

SMILES | IC50
OCc1ccccc1Nc1nc(Nc2cc(F)c(F)c(F)c2)ncc1Br | > 2000 nM
COc1cc(Nc2ncc(Br)c(Oc3cccc4c3N(C(C)=O)CCC4)n2)cc(OC)c1OC | > 2000 nM
Nc1ccccc1Oc1nc(Nc2ccc3c(c2)OCO3)ncc1Br | < 200 nM
CNC(=O)Cc1ccccc1Oc1nc(Nc2cc(OC)c(OC)c(OC)c2)ncc1Br | > 2000 nM
COc1ccc(Nc2ncc(C(F)(F)F)c(Nc3ccc4c(c3)OCO4)n2)cc1 | < 200 nM
COc1cc(Nc2ncc(Br)c(Oc3ccccc3C3=NC(C)(C)CO3)n2)cc(OC)c1OC | > 2000 nM
COc1cc(Nc2ncc(Br)c(Oc3cccc(O)c3[N+](=O)[O-])n2)cc(OC)c1OC | > 2000 nM
COc1cc(Nc2ncc(Br)c(Oc3cccc4cc[nH]c34)n2)cc(OC)c1OC | > 2000 nM
COc1cc(Nc2ncc(Br)c(Oc3cccc4ccncc34)n2)cc(OC)c1OC | > 2000 nM
O=C1CCc2cc(Nc3ncc(C(F)(F)F)c(NCCCNC(=O)C4CC4)n3)ccc2N1 | < 200 nM
CNC(=O)c1ccccc1COc1nc(Nc2cc(OC)c(OC)c(OC)c2)ncc1Br | > 2000 nM
FC(F)(F)c1cnc(Nc2cccc(Cl)c2Cl)nc1Nc1ccc2c(c1)OCO2 | > 2000 nM
COc1cc(Nc2ncc(C(F)(F)F)c(Oc3ccccc3N)n2)cc(OC)c1OC | < 200 nM
COc1cc(Nc2nc(Oc3cccc4c3N(C(C)=O)CCC4)ncc2Br)cc(O)c1OC | < 200 nM
COc1cc(Nc2ncc(Br)c(Oc3cccc4cccnc34)n2)cc(OC)c1OC | > 2000 nM
O=c1[nH][nH]c(=O)c2cc(Nc3ncc(C(F)(F)F)c(NC4CC4)n3)ccc12 | < 200 nM
CNC(=O)c1ccccc1Oc1nc(Nc2ccc3c(c2)CCC(=O)N3)ncc1Br | > 2000 nM
COc1cc(Nc2nc(Oc3cccc4c3CCCC4)ncc2Br)cc(O)c1OC | > 2000 nM
COc1cc(Nc2ncc(Br)c(Oc3ccccc3[S+](C)[O-])n2)cc(OC)c1OC (configuration not stated) | > 2000 nM
COc1cc(Nc2ncc(Br)c(Oc3cccc4c3CCCC4)n2)cc(OC)c1OC | > 2000 nM
COc1cc(Nc2ncc(Br)c(Oc3ccccc3NC(=O)C(F)(F)F)n2)cc(OC)c1OC | < 200 nM
COc1cc(Nc2ncc(Br)c(Oc3ccccc3CN(C)C)n2)cc(OC)c1OC | > 2000 nM
O=C1CCc2cc(Nc3ncc(C(F)(F)F)c(Nc4ccc5c(c4)OCO5)n3)ccc2N1 | < 200 nM
CCN1CCOc2cc(Nc3ncc(C(F)(F)F)c(NC4CC4)n3)cnc21 | < 200 nM

SMILES | IC50
COc1ccc(Nc2ncc(C(F)(F)F)c(NC3CC3)n2)cc1OC | < 200 nM
COc1cccc(Nc2nc(Nc3ccc(OC(F)(F)F)c(Cl)c3)ncc2C(F)(F)F)c1 | > 2000 nM
FC(F)(F)c1cnc(Nc2ccc(-n3cccc3)cc2)nc1Nc1ccc2c(c1)OCO2 | < 200 nM
CCN1CCOc2cc(Nc3nc(Nc4ccc5c(c4)CCC(=O)N5)ncc3Br)cnc21 | < 200 nM
COc1cc(Nc2ncc(Br)c(Oc3ccccc3CNC(C)=O)n2)cc(OC)c1OC | > 2000 nM
O=C1CCc2cc(Nc3ncc(C(F)(F)F)c(Nc4ccccc4CO)n3)ccc2N1 | < 200 nM
COc1cc(Nc2nc(Oc3cccc4cc[nH]c34)ncc2Br)cc(O)c1OC | > 2000 nM
CNC(=O)c1ccc(OC)cc1Oc1nc(Nc2cc(O)c(OC)c(OC)c2)ncc1Br | > 2000 nM
COc1cc(Nc2ncc(Br)c(Oc3ccccc3NS(C)(=O)=O)n2)cc(OC)c1OC | > 2000 nM
COCC(C)(CN(C)C)Nc1nc(Nc2ccc3c(c2)CCC(=O)N3)ncc1C(F)(F)F (configuration not stated) | > 2000 nM
NC(=O)c1cccc(Nc2ncc(C(F)(F)F)c(Nc3ccc4c(c3)OCO4)n2)c1 | < 200 nM
Oc1nc(Nc2cnc3[nH]ccc3c2)ncc1C(F)(F)F | > 2000 nM
CNC(=O)c1ccc(OC)cc1Oc1ncc(Br)c(Nc2cc(OC)c(OC)c(OC)c2)n1 | > 2000 nM
FC(F)(F)c1cnc(Nc2ccc3c(c2)CCC3)nc1Nc1ccc2c(c1)OCO2 | < 200 nM
COc1cc(Nc2ncc(Br)c(Oc3ccccc3O)n2)cc(OC)c1OC | > 2000 nM
COc1cc(Nc2ncc(Br)c(Oc3ccccc3NC(=O)C(C)(C)C)n2)cc(OC)c1OC | > 2000 nM
FC(F)(F)c1cnc(Nc2cccc(Oc3ccccc3)c2)nc1Nc1ccc2c(c1)OCO2 | > 2000 nM
CC(=O)NNc1nc(Nc2ccc3c(c2)CCC(=O)N3)ncc1C(F)(F)F | > 2000 nM
COc1cc(Nc2ncc(Cl)c(Nc3ccccc3CO)n2)cc(OC)c1OC | > 2000 nM
COc1cc(Nc2ncc(Br)c(-n3nnc4ccccc43)n2)cc(OC)c1OC | > 2000 nM
CC(=O)Nc1ccccc1Oc1nc(Nc2ccc3c(c2)OCO3)ncc1Br | > 2000 nM
COc1cc(Nc2ncc(Br)c(Oc3cccc4[nH]nnc34)n2)cc(OC)c1OC | > 2000 nM
O=C(C1CC1)N1CCc2cc(Nc3ncc(C(F)(F)F)c(NC4CC4)n3)ccc2C1 | < 200 nM
